How the values were obtained:
MV4-11 cells [1] = test: Antiproliferative assay in vitro (MTT), 72 h; type: cell-based, human; details: Homo sapiens, MV4-11; leukaemia cells, MTT, 72 h exposure, mean ± SD
Description: (§1) Biophenotypic B myelomonocytic leukaemia MV4-11, human lung carcinoma A549, human breast carcinoma MCF-7, human colon carcinoma LoVo, its drug resistant line LoVo/DX, liver carcinoma HepG2, and normal mouse fibroblast BALB/3T3 cells were obtained from the American Type Culture Collection (Rockville, Maryland, USA). All lines are being maintained at the Institute of Immunology and Experimental Therapy, Wrocław, Poland. All cell lines were grown in a humid atmosphere at 37 °C with 5% CO2 and were cultured in media according to the method described before.[18]
(§2) Prior to usage, the compounds were dissolved in DMSO to the concentration of 25 or 50 mM, and subsequently diluted in the culture medium to reach the required concentrations (ranging from 5 to 625 μM).
(§3) Twenty-four hours before addition of the tested compounds, the cells were plated in 96-well plates (Sarstedt, USA) at a density of 10^4 cells per well. All cell lines were exposed to each tested phosphatidylcholines for 72 h. Cells were also exposed to the commercially available drugs cisplatin and doxorubicin. Cell lines were also exposed to the solvent used for the tested compounds (DMSO) at concentrations corresponding to those present in the tested agents' dilutions. For adherent cells, a SRB assay was performed and an MTT assay was performed for leukaemia cells.
This technique was applied for the cytotoxicity screening against leukemia cells. An assay was performed after 72 h exposure to varying concentrations (from 5 to 625 μM) of the tested agents. For the last 3–4 hours of incubation. 20 μL of MTT solution was added to each well (MTT: 3-(4,5-dimethylthiazol-2-yl)-2,5-diphenyl tetrazolium bromide; stock solution: 5 mg mL^−1, Sigma, Germany). The mitochondria of viable cells reduce the pale yellow MTT to a navy blue formazan: the more viable cells are present in a well, the more MTT will be reduced to formazan. When the incubation time was completed, 80 μL of the lysing mixture was added to each well (lysing mixture: 225 mL dimethylformamide, 67.5 g sodium dodecyl sulphate, and 275 mL of distilled water). After 24 h, when formazan crystals had been dissolved, the optical densities of the samples were read with a Multiskan RC photometer at 570 nm wavelength. Each compound in a given concentration was tested in triplicate in each experiment, which was repeated 3–5 times.
(§4) The results of the cytotoxic activity in vitro were expressed as IC50—the concentration of compound (in μM) that inhibits the proliferation rate of the tumor cells by 50% as compared to control untreated cells.

LoVo cells = test: Antiproliferative assay in vitro (SRB), 72 h; type: cell-based, human; details: Homo sapiens, LoVo, colon cancer cells, 72 h exposure, mean ± SD
Description: as §1, §2, §3
(§5) The cytotoxicity assay was performed after 72 h exposure of the cultured cells to varying concentrations (from 5 to 625 μM) of the tested agents. The cells attached to the plastic were fixed in situ by gently adding 50 μL per well of cold 50% TCA (trichloroacetic acid). The plates were incubated at 4 °C for 1 h and then washed five times with tap water. The background optical density was measured in the wells filled with culture medium, without the cells. The cellular material fixed with TCA was stained with 50 μL of 0.4% sulforhodamine B (SRB) dissolved in 1% acetic acid for 30 min. Unbound dye was removed by rinsing (4×) with 1% acetic acid. The protein-bound dye was extracted with 10 mM unbuffered Tris base for determination of the optical density (at 540 nm) in a computer-interfaced 96-well microtiter plate reader Multiskan RC photometer (Labsystems, Helsinki, Finland). Each compound in the given concentration was tested in triplicate in each experiment, which was repeated 3–5 times.
as §4

LoVo/DX cells = test: Antiproliferative assay in vitro (SRB), 72 h; type: cell-based, human; details: for IC50: Homo sapiens, LoVo/DX, doxorubicin-resistant colon cancer cells, SRB, 72 h exposure, mean ± SD; for Resistance index (RI): doxorubicin-resistant LoVo/DX cell line versus LoVo
Description: as §1, §2, §3, §5, §4

A549 cells = test: Antiproliferative assay in vitro (SRB), 72 h; type: cell-based, human; details: Homo sapiens, A549, lung cancer cells, 72 h exposure, mean ± SD, read-out: IC50 A-549
Description: as §1, §2, §3, §5, §4

MCF-7 cells = test: Antiproliferative assay in vitro (SRB), 72 h; type: cell-based, human; details: Homo sapiens, MCF7, breast cancer cells, 72 h exposure, mean ± SD
Description: as §1, §2, §3, §5, §4

HepG2 cells = test: Antiproliferative assay in vitro (SRB), 72 h; type: cell-based, human; details: Homo sapiens, HepG2, liver cancer cells, 72 h exposure, mean ± SD
Description: as §1, §2, §3, §5, §4

BALB/3T3 cells = test: Antiproliferative assay in vitro (SRB), 72 h; type: cell-based, mouse; details: Mus musculus, BALB/3T3, normal mice fibroblast cells, 72 h exposure, mean ± SD
Description: as §1, §2, §3, §5, §4

MV4-11 cells [2] = test: Cell death determination by Annexin V and PI staining; type: cell-based, human; details: 50 μM, 72 h
Description: The MV4-11 cells were exposed to the test compound 5a at a concentration of 50 μM for 72 h. After incubation, the cells (2 × 10^5) were washed twice with PBS. APC-Annexin V (BD Pharmingen) was dissolved to the concentration of 1 mg mL^−1 in a binding buffer (HEPES buffer: 10 mM HEPES/NaOH), pH 7.4, 150 mM NaCl, 5 mM KCl, 1 mM MgCl2, 1.8 mM CaCl2, (IIET, Poland) and the cells were suspended in 200 μL of this 1 mg mL^−1 solution (freshly prepared each time). After the incubation in the dark (15 min) at room temperature, the solution (1 mg mL^−1) of propidium iodide (PI) was added prior to the analysis to give a final concentration of 0.1 mg mL^−1. Data acquisition was performed by flow cytometry using a BD LSRFortessa cytometer. Compound 5a was tested at least three times independently. The control in the assay was the cells exposed to DMSO at a concentration of 0.05%. Results were analyzed using Flowing software 2.5.1. […] Double-negative cells were live cells, PI+/Annexin V+ were late apoptotic or necrotic cells, and PI-/Annexin V+ were early apoptotic.

MV4-11 cells [3] = test: Cell cycle analysis (propidium iodide, flow cytometry); type: cell-based, human; details: 50 μM, 72 h
Description: For cell cycle analysis, the cells MV4-11 were treated with the tested compound 5a dissolved in DMSO at a concentration of 50 μM. The cells were treated also only by the DMSO for comparison. After 72 h of incubation, the cells (1 × 10^6) were trypsinized and rinsed with cold PBS. Washed cell pellets were fixed for 24 h in 70% ethanol at −20 °C. After fixation, the cells were washed twice with PBS once again and resuspended in PBS. Next, RNAse (8 μg mL^−1, Fermentas, Germany) was added and the cells were incubated for 1 h at 37 °C. The cells were then stained with propidium iodide (50 μg mL^−1, Sigma Aldrich, Germany) at 4 °C for 30 min and the cellular DNA content was analyzed by flow cytometry using a BD LSRFortessa cytometer (BD Bioscience, San Jose, USA). Compounds at each concentration were tested at least three times independently. The control in the assay was the cells exposed to DMSO at a concentration of 0.05%. Data were analyzed using ModFit 3.2 software (Verity Software, USA).

MV4-11 cells [4] = test: Determination of the mitochondrial membrane potential (JC-1, flow cytometry); type: cell-based, human; details: 50 μM, 72 h
Description: The loss of mitochondrial membrane potential was estimated using the fluorescent probe JC-1 (Sigma Aldrich, Germany). […] The cells were exposed to the tested compound 5a at a concentration of 50 μM. The MV4-11 cells (5 × 10^5) were washed in phosphate-buffered saline (PBS) containing 2% FBS. The pelleted cells were resuspended in 100 μL of the warm cultured medium with the addition of 10 μL of JC-1 (the final concentration of JC-1 was 3 μg mL^−1) and were then incubated for 30 min at 37 °C. Next, the cells were washed with 1 mL of PBS with 2% FBS and resuspended in 300 μL of PBS with 2% FBS. The mitochondrial membrane potential was analyzed by flow cytometry using BD LSRFortessa cytometry. Compounds at each concentration were tested at least three times independently. The control in the assay was the cells exposed to DMSO at a concentrations of 0.05%. Data were analyzed using Flowing software 2.5.1.

Compound | IC50 (MV4-11 cells [1]) [µM] | IC50 (LoVo cells) [µM] | IC50 (LoVo/DX cells) [µM] | IC50 (A549 cells) [µM] | IC50 (MCF-7 cells) [µM] | IC50 (HepG2 cells) [µM] | Resistance index (RI) (LoVo/DX cells) | IC50 (BALB/3T3 cells) [µM] | Induction of early apoptotic, apoptotic or necrotic cell death (MV4-11 cells [2]) | Effect on cell cycle (MV4-11 cells [3]) | Cells having a significantly lowered mitochondrial membrane potential (Ψm) (MV4-11 cells [4])
CCCCCCCCCCCCCCCC(=O)OC[C@H](COP(=O)([O-])OCC[N+](C)(C)C)OC(=O)C=Cc1cccc(OC)c1 [Compound 5b, 1-Palmitoyl-2-3-methoxycinnamoyl-sn-glycero-3-phosphocholine] | 83.2 ± 4 | 70.4 ± 5.4 | 69.9 ± 6.3 | 193 ± 27.4 | 224 ± 9.5 | 295 ± 11.4 | 0.99 | 257 ± 52.4 | – | – | –
CCCCCCCCCCCCCCCC(=O)O[C@H](COC(=O)C=Cc1ccccc1)COP(=O)([O-])OCC[N+](C)(C)C [Compound 10a, 1-Cinnamoyl-2-palmitoyl-sn-glycero-3-phosphocholine] | 88.7 ± 28.9 | 63 ± 14.4 | 66 ± 8.7 | 61.9 ± 3.7 | 127 ± 28.3 | 283 ± 5.2 | 1.05 | 208 ± 30.7 | – | – | –
CCCCCCCCCCCCCCCC(=O)O[C@H](COC(=O)C=Cc1cccc(OC)c1)COP(=O)([O-])OCC[N+](C)(C)C [Compound 10b, 1-3-Methoxycinnamoyl-2-palmitoyl-sn-glycero-3-phosphocholine] | 236 ± 46.3 | 211.6 ± 1.3 | 254 ± 11.6 | 280 ± 8.8 | 214 ± 89.6 | 296 ± 13.2 | 1.2 | 291 ± 5.6 | – | – | –
COc1cccc2c1C(=O)c1c(O)c3c(c(O)c1C2=O)C[C@@](O)(C(=O)CO)C[C@@H]3O[C@H]1C[C@H](N)[C@H](O)[C@H](C)O1 [Doxorubicin, doxorubicin, reference compound] | – | – | – | – | – | – | 55.81 | – | – | – | –

Continued by falling IC50 (MV4-11 cells [1]), values first:

IC50 (MV4-11 cells [1]) [µM] | IC50 (LoVo cells) [µM] | IC50 (LoVo/DX cells) [µM] | IC50 (A549 cells) [µM] | IC50 (MCF-7 cells) [µM] | IC50 (HepG2 cells) [µM] | Compound | Resistance index (RI) (LoVo/DX cells) | IC50 (BALB/3T3 cells) [µM] | Induction of early apoptotic, apoptotic or necrotic cell death (MV4-11 cells [2]) | Effect on cell cycle (MV4-11 cells [3]) | Cells having a significantly lowered mitochondrial membrane potential (Ψm) (MV4-11 cells [4])
165 ± 25.4 | 210 ± 22.2 | 32.1 ± 16.9 | 286 ± 5.3 | 307 ± 12.5 | 83.6 ± 45.1 | COc1cccc(C=CC(=O)OC[C@H](COP(=O)([O-])OCC[N+](C)(C)C)OC(=O)C=Cc2cccc(OC)c2)c1 [Compound 3b, 1,2-Di(3-methoxycinnamoyl)-sn-glycero-3-phosphocholine] | 0.15 | 297 ± 56.4 | – | – | –
43.2 ± 9.9 | 52.3 ± 5 | 56.3 ± 0.8 | 56.3 ± 0.4 | 64.6 ± 3.4 | 228 ± 30.6 | CCCCCCCCCCCCCCCC(=O)OC[C@H](COP(=O)([O-])OCC[N+](C)(C)C)OC(=O)C=Cc1ccccc1 [Compound 5a, 1-Palmitoyl-2-cinnamoyl-sn-glycero-3-phosphocholine] | 1.08 | 114 ± 36.6 | lack of induction | arrested cell cycle in the G2/M phase | about 45%
